Assay results as given in patent US20100160443A1, “COMPOUNDS USEFUL FOR TREATING NEUROLOGICAL DISORDERS” (Yissum Research Development Company of The Hebrew …, priority 2003, published 2010).

Assay: Plasma drug concentration and pharmacokinetics after i.p. administration to SNL operated rats
Format: in vivo, rat
Details: for minimal plasma concentration associated with the antiallodynic effect: SNL rats; for CL/F / Cmax / MRT / Tmax / half-life: rat, ip
Protocol: 0.5% MC, and […] of blood were collected from the amputated tail tip at each of three time points after injection. Blood was withdrawn for group 1 at 15, 60 and 180 min after dosing; for group 2 at 30, 90 and 240 min after dosing and for group 3 at 45, 120 and 360 min after dosing. Plasma was immediately separated by centrifugation at 3000 g for 15 min and stored at −20° C. until analyzed.
Plasma levels of VPA and DID were determined by gas chromatography (GC). An HP5890 series II GC equipped with FID detector, HP7673 autosampler, for DID HP-5 capillary column (0.25 μm×15 m×0.25 mm) was used. The temperature program was as follows: injector temperature 250° C.; initial temperature, 60° C. for 3 min; gradient of 15° C. min-1 until 180° C.; hold 5 min. For each drug, plasma levels obtained from 3 rats at each time point were averaged. 25 μl of internal standard solution (50 mg L^−1 of VPD for the DID assay) and 200 μl of 0.1M NaOH were added to 50 μl of plasma. The mixture was vortexed, and 1 ml of chloroform was added. The phases were separated, and the chloroform was evaporated. The dry residue was redissolved in 50 μl of chloroform, and 1 μl was injected into the gas chromatograph. Calibration curves were prepared separately by spiking naïve rat plasma samples with 1.56, 2.5, 3.12, 6.25, 12.5, 25.0, 37.5, 50.0, 75.0 and 100.0 mg L^−1 of DID. The limit of quantification (LOQ) of the method was 1.56 μg/ml, and the coefficient of variation (CV %) was <15% at all analyzed concentrations including LOQ.
The temperature program was as follows: injector temperature 280° C.; oven temperature, 135° C. 30 μl of internal standard solution (250 mg L-1 of 1-methyl-1cyclohexane carboxylic acid, MCCA, in MeOH) and 125 μl of 5N Hydrochloric acid (HCl) were added to 250 μl of plasma. The mixture was vortexed, and 2 ml of chloroform was added. The phases were separated, and the 1 ml of NaOH was added. 200 μl of HCl 5N and 2 ml of chloroform were added to the aqueous phase. The organic layer was evaporated and dry residue was redissolved in 50 μl of chloroform, and 30 μl was injected into the gas chromatograph. […] LOQ of the method was 25 mg L-1, and the coefficient of variation (CV %) was <15% at all analyzed concentrations including LOQ.
PK parameters were determined by non-compartmental analysis using the pharmacokinetic software package WinNonlin, version 4.0.1 (SCI Software, Lexington, Ky., U.S.A.; Yamaoka, et al., 1978 (YAMAOKA, K., […], T., & UNO, T. (1978). Statistical moments in pharmacokinetics. J Pharmacokinet. Biopharm., 6, 547-558); Gibaldi & Perrier, 1982 (GIBALDI, M., & PERRIER, D. (1982). Pharmacokinetics (2nd ed.). pp. 199-219 Marcel Dekker: New York); Rowland & Tozer, 1995 (ROWLAND, M., & TOZER, T. (1995). Pharmacological Response. In: Clinical Pharamcokeintics. pp. 340-365) Baltimore: Williams & Wilkins)). The terminal half-life (t½) was calculated as 0.693/β, where β is the linear terminal slope of the concentration (C)-versus-time curve. The area under the C-versus-time curve (AUC) was calculated by trapezoidal rule with extrapolation to infinity. The mean residence time (MRT) was calculated from the quotient AUMC/AUC, where AUMC is the area under the concentration-time product versus time curve from zero to infinity. Total (apparent) clearance (CL/F) was calculated from the quotient of […] with F being the absolute bioavailability following i.p. administration. The apparent volume of distribution (Vβ/F) was calculated from the quotient of CL and β. The peak plasma concentration (Cmax) and the time to reach Cmax (tmax) were determined empirically by visual inspection.

[1] = DID 40 mg kg^−1 i.p., plasma, SNL operated rats

minimal plasma concentration associated with the antiallodynic effect (VPA 300 mg kg^−1 i.p.)	CL/F (plasma, 300 mg/kg)	Cmax (plasma, 300 mg/kg)	MRT (plasma, 300 mg/kg)	Tmax (plasma, 300 mg/kg)	half-life (plasma, 300 mg/kg)	Compound	minimal plasma concentration associated with the antiallodynic effect (DID 40 mg kg^−1 i.p.)	Vβ/F [1]	CL/F [1]	Cmax [1]	MRT [1]	Tmax [1]	half-life [1]
						CC(C)C(C(N)=O)C(C)C [DID, diisopropylacetamide]	7 mg/L	1.2 L/kg	8.33 mL/min/kg	28 µg/mL	2.4 h	0.25 h	1.5 h
125 mg/L	3.33 mL/min/kg	515 µg/mL	5.8 h	0.5 h	4.6 h	CCCC(CCC)C(=O)O [VPA, Valproic acid, reference compound]							
